Measured values: paper doi:10.1101/2024.07.29.605666v2, “Effects of two different compounds on seizure suppression using the zebrafish PTZ-seizure model” (bioRxiv, 2024)

How the values were obtained:
Format in all cases: in vivo, zebrafish (Danio rerio)
[1] = test system: casp3a; assay: RT-qPCR of casp3a transcript in larval heads after PTZ-induced seizures; conditions: tripeptide 10 μg/mL 24 h, then 15 mM PTZ 20 min; no statistical difference detected; n = 5
Experimental: (§1) For all compounds, zebrafish larvae at 6 days post-fertilization (dpf) were randomly placed into Petri dishes, each one containing 25 larvae. The larvae were incubated in the respective solutions and concentrations for 24h (as specified in Table 1) prior to seizure induction. The temperature and photoperiod conditions were consistent with those described for the adult zebrafish. The study groups consisted of the Control Group (CG), PTZ Group (PTZ), Treatment 1, Treatment 2, and Treatment 3. Treatments 1 to 3 employed the previously determined concentrations mentioned above.
(§2) Seizure induction followed the pretreatment of the compounds. […]
(§3) Immediately after PTZ exposure, fish were cryo-anesthetized and their heads were cut, collected, and then incubated in TRIzol® (Invitrogen, Carlsbad, CA, USA). […] The concentration and quality were determined using the Epoch™ spectrophotometer (BioTek, Winooski, VT, USA) and gel electrophoresis.
(§4) The synthesis of cDNA was carried out using the High-Capacity cDNA Reverse Transcription kit (Applied Biosystems™, Califórnia, USA) following the manufacturer’s instructions. Quantitative PCR (qPCR) was performed using the SYBR ® Green Master Mix reagent (Bio-Rad) using the ABI 7500 system (Applied Biosystems, Foster City, CA, USA). […] Data were evaluated using 7500 software v2.03 (Applied Biosystems). […]

[2] = test system: bcl2a; assay: RT-qPCR of bcl2a transcript in larval heads after PTZ-induced seizures; conditions: tripeptide 10 μg/mL 24 h, then 15 mM PTZ 20 min; no statistical difference detected; n = 5
Experimental: as §1, §2, §3, §4

[3] = test system: baxa; assay: RT-qPCR of baxa transcript in larval heads after PTZ-induced seizures; conditions: tripeptide 10 μg/mL 24 h, then 15 mM PTZ 20 min; no statistical difference detected; n = 5
Experimental: as §1, §2, §3, §4

[4] = test system: il1b; assay: RT-qPCR of il1b transcript in larval heads after PTZ-induced seizures; conditions: tripeptide 24 h, then 15 mM PTZ 20 min; significant effects at 10 and 5 μg/mL; n = 5 pools of five heads; vs PTZ group
Experimental: as §1, §2, §3, §4

[5] = test system: casp9; assay: RT-qPCR of casp9 transcript in larval heads after PTZ-induced seizures; conditions: tripeptide 24 h, then 15 mM PTZ 20 min; significant effects at 10 and 5 μg/mL; n = 5 pools of five heads; vs PTZ group
Experimental: as §1, §2, §3, §4

[6] = test system: zebrafish larvae; assay: PTZ-induced seizure behaviour (latency and number of seizures) after 24 h compound pretreatment; conditions: tripeptide 25, 10 and 5 μg/mL, 24 h pretreatment, then 15 mM PTZ, 10 min visual observation; vs PTZ group
Experimental: as §1
Seizure induction followed the pretreatment of the compounds. Larvae with 7 dpf were carefully transferred to a 96-well plate filled with 100 μL of aquarium water, with one larva per well. Subsequently, 100 μL of 30 mM of the proconvulsant agent pentylenetetrazol (PTZ) (Sigma-Aldrich, St. Louis, MO, USA) was added to each well, resulting in a final concentration of 15 mM of PTZ. The larvae were exposed to PTZ for 20 minutes. The control group underwent the same procedure but in PTZ-free water.
The latency and number of seizures were monitored through visual observation, following the method described by Barbalho et al., 2016a. […] Larvae were evaluated for 10 minutes of PTZ exposure, and a complete seizure was considered when they reached stage 3.

**Q.** Glu-Val-Trp [Tripeptide] was tested. Which “casp3a gene expression (RQ = 2-ΔΔCT)” value [1] did it give?
**A.** The value was “roughly equivalent to or slightly higher than those of the PTZ group”.

**Q.** What about the “bcl2a gene expression (RQ = 2-ΔΔCT)” value [2] of the same substance?
**A.** The value was “roughly equivalent to or slightly higher than those of the PTZ group”.

**Q.** And the “baxa gene expression (RQ = 2-ΔΔCT)” value [3]?
**A.** The value was “roughly equivalent to or slightly higher than those of the PTZ group”.

**Q.** And the “il1b gene expression (RQ = 2-ΔΔCT)” value [4]?
**A.** The value was “downregulation”.

**Q.** And the “casp9 gene expression (RQ = 2-ΔΔCT)” value [5]?
**A.** Its value is “downregulation”.

**Q.** And the number of seizures [6]?
**A.** Its number of seizures is “No statistical significance was found”.

**Q.** And the “seizure latency (time to stage 3 seizure-like activity)” value [6]?
**A.** Its value is “No statistical significance was found”.
